Experimental data taken from patent US20050008653A1, “Stabilizing molecule” (Medical Research Council, priority 2001, published 2005).
“And” between values parts separate entries of the source, which are not always exact repeats. Equal values may be shown once. Read-outs that look alike come from different tables or passages of the source.

Assays:
[1] = target: T1, p53 core domain mutant I195T (Homo sapiens, UniProt P04637, I195T); test: Binding to random double stranded DNA sequence in presence of peptide; assay type: biochemical
T1 construct: human p53 core domain wild-type and mutants (residues 94-312); made in house
From the text: To confirm that the restoration of DNA binding is sequence-specific, we repeated the experiments with the random double stranded DNA sequence fluorescein-[…] […].

[2] = test system: tumour cells; test: FACS analysis of cell cycle distribution and cell death (subG1); assay type: cell-based; conditions: 10 μg/mL, 24 h
[3] = test system: H1299 cells containing p53 R175H; test: Distribution of FL-CDB3 in cells (fluorescence microscopy); assay type: cell-based; conditions: without Lipofectamine
Experimental: The results can be seen in FIG. 8.
Top left: H1299 cells containing p53 R 175H. […] The peptide remained visible for at least 48 h.

[4] = target: T2, p53 core domain (Homo sapiens, UniProt P04637); test: Refolding of urea-denatured p53 core domain by fluorescence anisotropy; assay type: biochemical; design: human p53 core domain wild-type and mutants (residues 94-312); made in house; conditions: 3 M urea, 10° C.
From the text: Upon mixing the peptide with p53 core domain a rapid binding event takes place, leading to the formation of a FL-CDB3-p53 core domain complex. […] There is an increase in the anisotropy over time, as the peptide induced protein refolding by mass action (FIG. 6d). […] Urea weakened the binding to the native structure so that the stabilising effects in 3 M urea are not as pronounced as they would be in water alone.

[5] = target: T1, p53 core domain mutant I195T; test: Restoration of sequence-specific DNA binding (fluorescein-labelled Gadd45 DNA, anisotropy); assay type: biochemical; conditions: CDB3 100 μM
[6] = target: T3, wild-type p53 core domain (Homo sapiens, UniProt P04637); test: DNA binding in presence of peptide (Gadd45 DNA); assay type: biochemical
T3 construct: human p53 core domain wild-type and mutants (residues 94-312); made in house

[7] = target: p53 (Homo sapiens, UniProt P04637); test: Stabilisation of active conformations of p53 (no method given)
[8] = test system: p53 mutant His175 in H1299 lung carcinoma cells; conditions: 24 h incubation
Experimental: (§1) The general methods used in the examples set forth below are described in detail in Bykov et al., Nature Med 8, 282-288 (2002) which is herein incorporated by reference.
Lung carcinoma cells H1299 transfected with His175 p53 mutant and parental nontransfected cells were treated with the amounts of peptide indicated below, incubated for 24 h and tested for p53, p21, and Mdm-2 protein expression. […] The treatment with peptide was performed either with or without Lipofectamine.

[9] = test system: H1299-His175 cells; test: Dead cells by trypan blue exclusion; assay type: cell-based; conditions: 10 μg/mL peptide, 24 h; before treatment 5%
[10] = test system: Saos-2-His273 cells; test: Dead cells by trypan blue exclusion; assay type: cell-based; conditions: 10 μg/mL peptide, 24 h; before treatment 3%
[11] = test system: wtp53 in colon carcinoma HCT116 cells; test: Western blot of induced protein expression; assay type: cell-based; conditions: 24 h, 10 μg/mL FL-CDB3
[12] = test system: control Saos-2 (p53 null) cells; conditions: 10 μg/mL peptide, 24 h; before treatment 3%
Experimental: as §1
(§2) Tumour cells were treated with 10 μg/mL of peptide and analysed the cell cycle distribution and cell death (as subG1 fraction) 24 h post treatment using FACS analysis.

[13] = test system: control H1299 (p53 null) cells; conditions: 10 μg/mL peptide, 24 h; before treatment 3%
Experimental: as §1, §2

[14] = target: T2, p53 core domain; conditions: Gadd45 DNA 5-25 μM
[15] = target: T3, wild-type p53 core domain; test: Differential scanning calorimetry (apparent Tm); assay type: binding; conditions: HEPES buffer pH 7.2, 1 mM DTT; 40.1° C. without peptide
Experimental: Differential Scanning Calorimetry may also be used to detect and/or quantify binding. Differential Scanning Calorimetry may be performed using methods known to those skilled in the art. In a suitable example, DSC experiments are performed using a Microcal VP-DSC microcalorimeter (Microcal, Amherst, Mass.). Temperatures from 5 to 95° C. are scanned at a rate of 60 deg/h, using a HEPES buffer pH 7.2, 1 mM DTT, which also served for baseline measurements. […] A pressure of 25 psi […] is applied to the cell. The data is analysed using Origin software (Microcal).
The thermal denaturation of p53 core domain is irreversible, and thus only an apparent melting temperature (Tm) can be determined (Bullock et al., 1997), but increase in stability can be correlated with increase in the apparent Tm. All DSC measurements are carried out in HEPES buffer pH 7.2, 1 mM DTT.

[16] = target: wild-type p53 core domain (94-312) (Homo sapiens, UniProt P04637); conditions: increasing urea concentrations
[17] = test system: HCTp53-/- cells; test: Western blot of induced protein expression; assay type: cell-based; conditions: 24 h, 10 μg/mL FL-CDB3
[18] = test system: p53 mutant His273; conditions: 24 h incubation, 1-10 μg/mL FL-CDB3
[19] = target: T2, p53 core domain; test: BIAcore binding of p53 core domain to immobilised biotinylated CDB3 (half saturation concentration); design: human p53 core domain wild-type and mutants (residues 94-312); made in house
From the text: Surface plasmon resonance measurements may be performed using a BIAcore 2000 using methods familiar to those skilled in the art. For example, it may be equipped with a sensor chip SA (BIAcore AB, Uppsala, Sweden) both to screen the polypeptide for binding of stabilising molecule and to quantify the binding of the stabilising molecule to the polypeptide. […] Biotinylated stabilising molecules such as CDB peptides may be immobilised and the binding of the polypeptide (in this case p53) can therefore be studied.
All immobilisation as well as binding measurements may be performed at 10° C. with 50 mM HEPES, pH 7.2, 5 mM DTT, as running buffer, using a sample frequency of 1 Hz. The streptavidin surface of the chip can be activated with […] NaOH, 1 M NaCl, in three cycles of 1 min, 20 μL/min, before the immobilization of peptides. The biotinylated peptides may be dissolved to a final concentration of 1.5-4.0 mM (in buffer as above with addition of 0.13 M NaCl) and can be immobilised at a flow rate of 5 μL/min until the level of saturation is reached. In the above Example Flow cell 1 can be used as a background for the change in bulk refractive index.
The binding association is measured for 5 min at 30 μL/min, […], in the buffer described above (no salt added). […]
Surface plasmon resonance can be used to measure the CDB3-p53 core domain binding constant quantitatively. […]

[20] = target: T2, p53 core domain; test: Anisotropy competition with fluorescein-labeled CDB3; conditions: solution measurements

CC[C@H](C)[C@H](NC(=O)[C@H](CCC(=O)O)NC(=O)[C@H](CC(=O)O)NC(=O)[C@H](CCC(=O)O)NC(=O)[C@H](CC(=O)O)NC(=O)[C@H](CCC(=O)O)NC(=O)[C@@H](N)CCCNC(=N)N)C(=O)N[C@@H](CCC(=O)O)C(=O)N[C@@H](Cc1c[nH]c2ccccc12)C(N)=O [CDB3]
effect on binding of I195T to random DNA sequence [1]: not improved, but rather inhibited | apoptosis [2]: induces apoptosis in tumour cells in p53-dependent manner | growth arrest [2]: no growth arrest was detected | penetration into cells [3]: able to penetrate inside the cells by itself | refolding of p53 core domain [4]: induced refolding of p53 core domain | improvement of I195T binding to Gadd45 DNA [5]: six fold | effect on DNA binding of wild-type p53 core domain [6]: did not affect DNA binding

COc1ccc(/C=C/c2nc(NCCCN(C)C)c3ccccc3n2)cc1 [CP-31398]
stabilisation of active conformations of p53 [7]: does not in fact work to stabilise active conformations of p53

CC[C@H](C)[C@H](NC(=O)[C@H](CCC(=O)O)NC(=O)[C@H](CC(=O)O)NC(=O)[C@H](CCC(=O)O)NC(=O)[C@H](CC(=O)O)NC(=O)[C@H](CCC(=O)O)NC(=O)[C@H](CCCNC(=N)N)NC(=O)c1ccc2c(c1)C(=O)OC21c2ccc(O)cc2Oc2cc(O)ccc21)C(=O)N[C@@H](CCC(=O)O)C(=O)N[C@@H](Cc1c[nH]c2ccccc12)C(N)=O [FL-CDB3]
mutant p53 levels [8]: remarkably increased | p21 and Mdm-2 protein expression ([8]; 10 μg/mL FL-CDB3): restored the ability of p53 mutants His175 and His273 to activate the transcription of endogenous genes p21 and Mdm-2 | dead cells after treatment [9]: 37% | penetration into cells [3]: able to penetrate inside the cells by itself | dead cells after treatment [10]: 28% | Mdm-2 and p21 expression [11]: activates expression of Mdm-2 and p21 | dead cells after treatment [12]: 13% | dead cells after treatment [13]: 11% | displacement of peptide from p53 core domain by DNA [14]: displaced the peptide completely | apparent Tm of wild-type core domain in presence of peptide [15]: 41.6 °C | dependence of binding on urea concentration [16]: binding weakened with increasing urea concentrations | p21 and Mdm-2 induction [17]: No induction of p21 nor Mdm-2 | p21 and Mdm-2 protein expression [18]: restored the ability of p53 mutants His175 and His273 to activate the transcription of endogenous genes p21 and Mdm-2

CC[C@H](C)[C@H](NC(=O)[C@H](CCC(=O)O)NC(=O)[C@H](CC(=O)O)NC(=O)[C@H](CCC(=O)O)NC(=O)[C@H](CC(=O)O)NC(=O)[C@H](CCC(=O)O)NC(=O)[C@H](CCCNC(=N)N)NC(=O)CCCC[C@@H]1SC[C@@H]2NC(=O)N[C@@H]21)C(=O)N[C@@H](CCC(=O)O)C(=O)N[C@@H](Cc1c[nH]c2ccccc12)C(N)=O [biotinylated CDB3]
Kd ([19]; biotinylated CDB3 immobilized on SA sensor chip, read-out: concentration of p53 core domain for 50% binding): ~200 nM | Kd ([19]; immobilized peptide, half saturation concentration by BIAcore, read-out: Kd): 200 nM and ~200 nM | improvement of affinity compared to the unlabeled peptide [20]: three-fold
